Among the data in ChEMBL document CHEMBL4028801, “A multifactorial approach to hepatobiliary transporter assessment enables improved therapeutic compound development” (Toxicol Sci, 2013) are IC50 values, retold here.

Structures can show the parent of a compound that is named as a salt. A value given as a limit tells only on which side of the number the result lay.

One test has as its target Bile salt export pump (Homo sapiens, UniProt O95342). The experiment in a line: Inhibition of human BSEP overexpressed in Sf9 cell membrane vesicles assessed as uptake of [3H]-taurocholate in presence of ATP measured after 15 to 20 mins by membrane vesicle transport assay. The format is ADME, cell-based.
The target in test [1] is ATP-binding cassette sub-family C member 3 (Homo sapiens, UniProt O15438). The experiment in a line: Inhibition of human MRP3 overexpressed in Sf9 insect cell membrane vesicles assessed as uptake of [3H]-estradiol-17beta-D-glucuronide in presence of ATP and GSH measured after 10 mins by membrane vesicle transport assay. The format is ADME, cell-based.
Sequence of ATP-binding cassette sub-family C member 3 (O15438 whole entry): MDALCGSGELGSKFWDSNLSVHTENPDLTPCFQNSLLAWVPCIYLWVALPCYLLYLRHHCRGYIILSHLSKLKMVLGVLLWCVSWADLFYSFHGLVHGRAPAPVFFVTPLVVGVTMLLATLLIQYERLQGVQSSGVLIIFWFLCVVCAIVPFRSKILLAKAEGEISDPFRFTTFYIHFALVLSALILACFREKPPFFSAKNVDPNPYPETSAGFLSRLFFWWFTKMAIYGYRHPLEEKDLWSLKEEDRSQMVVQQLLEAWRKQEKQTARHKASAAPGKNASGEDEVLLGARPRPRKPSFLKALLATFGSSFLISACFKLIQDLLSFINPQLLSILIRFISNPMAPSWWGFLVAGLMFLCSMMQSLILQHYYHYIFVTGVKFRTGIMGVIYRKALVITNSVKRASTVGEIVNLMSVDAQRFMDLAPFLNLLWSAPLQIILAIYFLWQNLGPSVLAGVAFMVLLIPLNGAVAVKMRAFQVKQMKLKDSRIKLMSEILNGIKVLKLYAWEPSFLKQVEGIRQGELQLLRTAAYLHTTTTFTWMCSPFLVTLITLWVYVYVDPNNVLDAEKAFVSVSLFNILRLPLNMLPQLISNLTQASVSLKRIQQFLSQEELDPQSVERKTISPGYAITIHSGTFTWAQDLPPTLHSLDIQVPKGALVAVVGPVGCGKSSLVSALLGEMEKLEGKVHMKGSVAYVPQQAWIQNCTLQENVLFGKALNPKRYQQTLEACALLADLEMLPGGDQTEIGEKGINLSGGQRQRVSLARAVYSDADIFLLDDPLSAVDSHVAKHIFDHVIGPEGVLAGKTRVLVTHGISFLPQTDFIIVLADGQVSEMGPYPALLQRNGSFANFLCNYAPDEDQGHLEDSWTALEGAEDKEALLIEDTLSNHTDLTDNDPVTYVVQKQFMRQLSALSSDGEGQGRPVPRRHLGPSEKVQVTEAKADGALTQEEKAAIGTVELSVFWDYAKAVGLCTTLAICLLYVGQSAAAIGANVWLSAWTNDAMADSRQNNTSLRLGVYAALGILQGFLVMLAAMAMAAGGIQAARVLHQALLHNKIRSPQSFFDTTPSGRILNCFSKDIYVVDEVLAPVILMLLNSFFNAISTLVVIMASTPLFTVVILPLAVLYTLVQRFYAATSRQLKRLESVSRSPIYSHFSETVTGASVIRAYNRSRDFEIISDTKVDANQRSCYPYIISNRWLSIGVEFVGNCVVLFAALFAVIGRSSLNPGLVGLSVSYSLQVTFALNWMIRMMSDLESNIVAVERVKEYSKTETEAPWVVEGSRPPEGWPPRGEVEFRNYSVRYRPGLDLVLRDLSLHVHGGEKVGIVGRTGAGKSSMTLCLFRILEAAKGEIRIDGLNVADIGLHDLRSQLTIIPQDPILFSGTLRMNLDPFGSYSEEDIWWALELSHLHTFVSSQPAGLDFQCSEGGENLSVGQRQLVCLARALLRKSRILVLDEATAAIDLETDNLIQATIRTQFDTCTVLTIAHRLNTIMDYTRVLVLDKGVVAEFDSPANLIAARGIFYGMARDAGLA
Test [2] has as its target T1, ATP-binding cassette sub-family C member 4 (Homo sapiens, UniProt O15439).
T1 sequence (O15439 whole entry): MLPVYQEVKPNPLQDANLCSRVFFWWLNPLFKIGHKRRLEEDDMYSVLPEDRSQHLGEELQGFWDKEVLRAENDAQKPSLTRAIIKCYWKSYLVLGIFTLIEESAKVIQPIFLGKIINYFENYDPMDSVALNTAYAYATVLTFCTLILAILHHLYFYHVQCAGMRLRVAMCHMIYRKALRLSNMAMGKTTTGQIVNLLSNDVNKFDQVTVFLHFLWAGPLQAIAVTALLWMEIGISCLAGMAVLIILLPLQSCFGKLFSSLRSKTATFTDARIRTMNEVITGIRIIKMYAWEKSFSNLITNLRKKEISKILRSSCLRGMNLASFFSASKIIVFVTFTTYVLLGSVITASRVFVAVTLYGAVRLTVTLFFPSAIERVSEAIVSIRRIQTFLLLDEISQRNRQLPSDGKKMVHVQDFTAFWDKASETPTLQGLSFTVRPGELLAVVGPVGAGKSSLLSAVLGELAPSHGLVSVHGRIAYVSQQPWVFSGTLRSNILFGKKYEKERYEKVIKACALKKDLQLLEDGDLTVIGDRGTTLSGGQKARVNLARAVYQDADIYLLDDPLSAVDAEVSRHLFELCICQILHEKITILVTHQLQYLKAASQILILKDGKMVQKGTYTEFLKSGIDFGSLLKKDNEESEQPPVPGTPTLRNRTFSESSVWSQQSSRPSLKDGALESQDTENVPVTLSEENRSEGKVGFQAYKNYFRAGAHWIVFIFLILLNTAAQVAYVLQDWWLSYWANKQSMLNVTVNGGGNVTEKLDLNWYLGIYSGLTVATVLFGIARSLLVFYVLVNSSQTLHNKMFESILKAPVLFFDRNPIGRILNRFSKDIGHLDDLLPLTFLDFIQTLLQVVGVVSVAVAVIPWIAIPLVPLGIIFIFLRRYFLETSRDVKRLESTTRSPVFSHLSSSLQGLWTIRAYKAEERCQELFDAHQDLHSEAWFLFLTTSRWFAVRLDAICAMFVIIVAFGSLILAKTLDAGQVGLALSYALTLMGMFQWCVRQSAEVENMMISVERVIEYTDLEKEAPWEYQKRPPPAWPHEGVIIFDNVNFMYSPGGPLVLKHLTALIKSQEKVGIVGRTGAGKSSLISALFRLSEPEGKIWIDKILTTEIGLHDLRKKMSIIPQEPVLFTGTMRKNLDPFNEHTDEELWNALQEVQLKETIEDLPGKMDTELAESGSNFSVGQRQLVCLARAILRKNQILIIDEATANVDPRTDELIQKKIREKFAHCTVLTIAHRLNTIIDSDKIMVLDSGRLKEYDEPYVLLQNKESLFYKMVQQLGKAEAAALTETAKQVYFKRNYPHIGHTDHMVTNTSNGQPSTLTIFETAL
The experiment in a line: Inhibition of human MRP4 overexpressed in Sf9 cell membrane vesicles assessed as uptake of [3H]-estradiol-17beta-D-glucuronide in presence of ATP and GSH measured after 20 mins by membrane vesicle transport assay. The format is ADME, cell-based.

Test [3] deals with ATP-binding cassette sub-family C member 2 (Homo sapiens, UniProt Q92887). The experiment in a line: Inhibition of human MRP2 overexpressed in Sf9 cell membrane vesicles assessed as uptake of [3H]-estradiol-17beta-D-glucuronide in presence of ATP and GSH measured after 20 mins by membrane vesicle transport assay.
Sequence of ATP-binding cassette sub-family C member 2 (Q92887 whole entry): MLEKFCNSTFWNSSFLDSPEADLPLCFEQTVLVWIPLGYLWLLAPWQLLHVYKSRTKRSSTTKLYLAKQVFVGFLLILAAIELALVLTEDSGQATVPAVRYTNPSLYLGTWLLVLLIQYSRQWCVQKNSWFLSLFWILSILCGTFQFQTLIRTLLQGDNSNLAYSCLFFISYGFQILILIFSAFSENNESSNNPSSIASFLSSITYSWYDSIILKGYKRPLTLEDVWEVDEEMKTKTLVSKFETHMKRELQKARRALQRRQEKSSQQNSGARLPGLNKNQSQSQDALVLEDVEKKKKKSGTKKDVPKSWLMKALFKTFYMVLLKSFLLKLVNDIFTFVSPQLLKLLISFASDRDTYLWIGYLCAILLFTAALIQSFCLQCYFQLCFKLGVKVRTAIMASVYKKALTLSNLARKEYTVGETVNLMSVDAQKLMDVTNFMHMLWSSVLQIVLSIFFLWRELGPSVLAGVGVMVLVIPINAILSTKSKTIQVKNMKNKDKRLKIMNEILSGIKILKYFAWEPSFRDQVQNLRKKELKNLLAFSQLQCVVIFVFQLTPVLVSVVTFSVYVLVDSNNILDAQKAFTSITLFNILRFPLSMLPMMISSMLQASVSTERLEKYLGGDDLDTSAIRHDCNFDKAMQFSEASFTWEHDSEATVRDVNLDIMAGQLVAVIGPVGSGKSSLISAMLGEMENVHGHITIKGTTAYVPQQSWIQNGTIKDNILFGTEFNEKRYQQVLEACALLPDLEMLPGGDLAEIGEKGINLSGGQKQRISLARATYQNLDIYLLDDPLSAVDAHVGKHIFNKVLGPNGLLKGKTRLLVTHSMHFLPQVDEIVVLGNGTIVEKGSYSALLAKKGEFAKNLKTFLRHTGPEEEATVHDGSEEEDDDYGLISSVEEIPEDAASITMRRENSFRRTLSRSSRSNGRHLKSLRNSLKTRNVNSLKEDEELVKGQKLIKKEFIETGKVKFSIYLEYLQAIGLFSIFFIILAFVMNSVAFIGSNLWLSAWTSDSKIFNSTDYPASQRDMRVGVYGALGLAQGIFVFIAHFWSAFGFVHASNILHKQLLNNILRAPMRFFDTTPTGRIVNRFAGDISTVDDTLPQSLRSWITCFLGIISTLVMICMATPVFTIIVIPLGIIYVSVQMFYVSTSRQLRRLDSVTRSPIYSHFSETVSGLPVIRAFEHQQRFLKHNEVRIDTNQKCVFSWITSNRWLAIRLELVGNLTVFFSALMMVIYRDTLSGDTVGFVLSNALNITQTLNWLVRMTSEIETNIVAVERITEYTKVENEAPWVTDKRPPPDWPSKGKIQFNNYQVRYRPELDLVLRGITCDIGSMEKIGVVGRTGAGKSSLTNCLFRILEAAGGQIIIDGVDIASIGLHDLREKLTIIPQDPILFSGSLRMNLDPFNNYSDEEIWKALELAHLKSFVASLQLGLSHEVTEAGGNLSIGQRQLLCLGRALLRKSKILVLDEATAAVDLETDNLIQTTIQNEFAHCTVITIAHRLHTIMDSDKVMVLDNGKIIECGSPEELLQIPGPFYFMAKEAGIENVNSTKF

Sequence of Bile salt export pump (O95342 whole entry): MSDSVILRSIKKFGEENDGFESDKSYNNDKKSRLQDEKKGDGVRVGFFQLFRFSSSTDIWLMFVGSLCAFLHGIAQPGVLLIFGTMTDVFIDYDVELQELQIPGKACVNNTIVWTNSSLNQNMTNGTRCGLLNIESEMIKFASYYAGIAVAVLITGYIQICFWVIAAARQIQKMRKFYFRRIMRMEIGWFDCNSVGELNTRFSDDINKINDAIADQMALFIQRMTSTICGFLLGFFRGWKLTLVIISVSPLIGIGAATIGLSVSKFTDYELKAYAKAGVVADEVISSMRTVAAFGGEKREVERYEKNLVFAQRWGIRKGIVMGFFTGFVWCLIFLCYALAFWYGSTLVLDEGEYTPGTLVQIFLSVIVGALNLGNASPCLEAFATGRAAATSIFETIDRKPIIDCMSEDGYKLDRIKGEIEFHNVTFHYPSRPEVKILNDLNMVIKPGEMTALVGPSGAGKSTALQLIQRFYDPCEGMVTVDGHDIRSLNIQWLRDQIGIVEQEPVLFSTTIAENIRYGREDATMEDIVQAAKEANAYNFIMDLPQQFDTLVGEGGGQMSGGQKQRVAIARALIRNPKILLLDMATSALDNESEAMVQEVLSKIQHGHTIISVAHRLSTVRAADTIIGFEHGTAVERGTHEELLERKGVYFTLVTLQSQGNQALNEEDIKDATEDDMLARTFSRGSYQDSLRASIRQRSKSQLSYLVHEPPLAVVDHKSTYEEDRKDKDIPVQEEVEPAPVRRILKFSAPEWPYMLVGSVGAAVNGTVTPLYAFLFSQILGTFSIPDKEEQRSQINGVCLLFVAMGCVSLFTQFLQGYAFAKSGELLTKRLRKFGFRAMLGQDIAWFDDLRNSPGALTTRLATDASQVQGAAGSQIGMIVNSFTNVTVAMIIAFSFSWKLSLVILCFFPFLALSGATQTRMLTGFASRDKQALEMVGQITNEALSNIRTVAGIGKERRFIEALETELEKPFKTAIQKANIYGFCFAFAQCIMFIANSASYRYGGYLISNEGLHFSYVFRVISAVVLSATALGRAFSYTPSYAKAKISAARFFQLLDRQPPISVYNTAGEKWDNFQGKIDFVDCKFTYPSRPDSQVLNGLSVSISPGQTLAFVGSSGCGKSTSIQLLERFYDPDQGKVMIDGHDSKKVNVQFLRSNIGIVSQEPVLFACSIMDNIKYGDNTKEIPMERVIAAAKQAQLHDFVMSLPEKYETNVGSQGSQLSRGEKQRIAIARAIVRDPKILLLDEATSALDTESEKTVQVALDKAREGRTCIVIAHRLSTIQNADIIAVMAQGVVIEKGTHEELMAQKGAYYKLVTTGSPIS

What is called IC50 is the midpoint of a concentration-inhibition curve. As for `CC(C)(S)[C@@H](N)C(=O)O` [PENICILLAMINE], the concentration for half-maximal inhibition (IC50) on Bile salt export pump was > 133 µM.

As to `Nc1c(CC(=O)O)cccc1C(=O)c1ccc(Br)cc1` [BROMFENAC], the half-inhibitory concentration (IC50) (at Bile salt export pump; in test [1]; in test [2]) was > 133 µM throughout.

With `Sc1ncnc2nc[nH]c12` [MERCAPTOPURINE ANHYDROUS], the IC50 on Bile salt export pump was > 133 µM.

With `CCOC(=O)C1=C(C)NC(C)=C(C(=O)OC)C1c1cccc([N+](=O)[O-])c1` (stereo unspecified) [NITRENDIPINE], the figures for the IC50 (at Bile salt export pump; in test [1]; in test [2]) were 22.5 µM, > 133 µM and > 133 µM, respectively.

Consider `COc1cccc([C@]2(O)CCCC[C@H]2CN(C)C)c1`, for which the IC50 at Bile salt export pump was > 133 µM.

As to `CCCCNc1cc(C(=O)O)cc(S(N)(=O)=O)c1Oc1ccccc1` [BUMETANIDE], the IC50 (at Bile salt export pump; in test [1]; in test [2]) was > 133 µM throughout.

As for `CCOC(=O)[C@H](CCc1ccccc1)N[C@@H](C)C(=O)N1[C@H](C(=O)O)C[C@H]2CCCC[C@@H]21` [TRANDOLAPRIL], the IC50 (at Bile salt export pump; in test [1]; in test [2]) was > 133 µM each time.

With `CC(=O)Nc1ccc(S(=O)(=O)Nc2ccc([N+](=O)[O-])cc2)cc1`, the IC50 (on Bile salt export pump; in test [1]; in test [2]) was > 133 µM each time.

On to `OC[C@H]1O[C@@H](n2cnc3c2NC=NC[C@H]3O)C[C@@H]1O` [PENTOSTATIN], for which, at Bile salt export pump, the IC50 is > 133 µM.

Turning to `COc1cc2nc(N(C)CCCNC(=O)C3CCCO3)nc(N)c2cc1OC` (stereo unspecified) [ALFUZOSIN HYDROCHLORIDE], at Bile salt export pump, the half-maximal inhibitory concentration (IC50) was > 133 µM.

With `CC(C)(Oc1ccc(C2CC2(Cl)Cl)cc1)C(=O)O` (stereo unspecified) [CIPROFIBRATE], the IC50 (at Bile salt export pump; in test [1]; in test [2]) was > 133 µM each time.

With `COc1c(O[C@@H]2O[C@H](CO)[C@@H](O)[C@H](O)[C@H]2O)cc2c(c1OC)-c1ccc(SC)c(=O)cc1[C@@H](NC(C)=O)CC2` [THIOCOLCHICOSIDE], the IC50 at Bile salt export pump is > 133 µM.

For the molecule `C[C@@H](O)[C@H]1C(=O)N2C(C(=O)O)=C(SCCN=CN)C[C@H]12`, the IC50 on Bile salt export pump is > 133 µM.

Consider `Nc1nnc(-c2cccc(Cl)c2Cl)c(N)n1` [LAMOTRIGINE], for which the IC50 on Bile salt export pump is > 133 µM.

Regarding `CC(=O)Nc1nnc(S(N)(=O)=O)s1` [ACETAZOLAMIDE], the IC50 in test [3], in test [1] and in test [2] was > 133 µM each time.

On to `COCCCC/C(=N\OCCN)c1ccc(C(F)(F)F)cc1` [FLUVOXAMINE MALEATE], for which the IC50 in test [3], in test [1] and in test [2] was > 133 µM throughout.

Regarding `COCCc1ccc(OCC(O)CNC(C)C)cc1` (stereo unspecified) [METOPROLOL], the IC50 in test [3], in test [1] and in test [2] was > 133 µM each time.

As for `CC(C)NCC(O)COc1cccc2[nH]ccc12` (stereo unspecified) [PINDOLOL], the IC50 in test [3], in test [1] and in test [2] was > 133 µM each time.

On to `CN(C)C(=N)N=C(N)N` [METFORMIN], for which the IC50 in test [3], in test [1] and in test [2] was > 133 µM each time.

For `CCCCC[C@H](O)/C=C/[C@H]1[C@H](O)CC(=O)[C@@H]1CCCCCCC(=O)O` [ALPROSTADIL], the IC50 in test [3] is > 133 µM; in test [1], 26.9 µM; in test [2], 2.3 µM.

On to `CN/C(=N/CCSCc1nc[nH]c1C)NC#N` [CIMETIDINE], for which the IC50 in test [3], in test [1] and in test [2] was > 133 µM each time.

In the case of `N#Cc1ccc(C(c2ccc(C#N)cc2)n2cncn2)cc1` [LETROZOLE], the IC50 at Bile salt export pump is > 133 µM.

As to `COCCCOc1cc(C[C@@H](C[C@H](N)[C@@H](O)C[C@H](C(=O)NCC(C)(C)C(N)=O)C(C)C)C(C)C)ccc1OC` [ALISKIREN FUMARATE], the IC50 on Bile salt export pump is > 133 µM.

As to `CC(C)(C)NCC(O)c1ccc(O)c(CO)c1` (stereo unspecified) [ALBUTEROL], the IC50 in test [3], in test [1] and in test [2] was > 133 µM in each case.

On to `N#C[C@@H]1C[C@@H]2C[C@@H]2N1C(=O)[C@@H](N)C12CC3CC(CC(O)(C3)C1)C2` [SAXAGLIPTIN HYDROCHLORIDE], for which the IC50 in test [3], in test [1] and in test [2] was > 133 µM throughout.

On to `CC[C@H]1OC(=O)[C@H](C)[C@@H](O[C@H]2C[C@@](C)(OC)[C@@H](O)[C@H](C)O2)[C@H](C)[C@@H](O[C@@H]2O[C@H](C)C[C@H](N(C)C)[C@H]2O)[C@](C)(O)C[C@@H](C)C(=O)[C@H](C)[C@@H](O)[C@]1(C)O`, for which the IC50 in test [3] is > 133 µM; in test [1] it was > 133 µM; in test [2], 68.2 µM.

For the molecule `CN(C)CCCN1c2ccccc2CCc2ccc(Cl)cc21` [CLOMIPRAMINE], the IC50 in test [3], in test [1] and in test [2] was > 133 µM each time.

In the case of `COCCOC(=O)C1=C(C)NC(C)=C(C(=O)OC(C)C)C1c1cccc([N+](=O)[O-])c1` (stereo unspecified) [NIMODIPINE], the IC50 in test [3], in test [1] and in test [2] was > 133 µM in each case.

Turning to `CC1=C(C(=O)O)N2C(=O)[C@@H](NC(=O)[C@H](N)c3ccc(O)cc3)[C@H]2SC1` [CEFADROXIL], the concentration for half-maximal inhibition (IC50) in test [3], in test [1] and in test [2] was > 133 µM each time.

In the case of `CCn1cc(C(=O)O)c(=O)c2cc(F)c(N3CCNCC3)cc21` [NORFLOXACIN], the IC50 in test [3], in test [1] and in test [2] was > 133 µM each time.

On to `CN(C)CCC=C1c2ccccc2COc2ccccc21` [DOXEPIN], for which the IC50 in test [3], in test [1] and in test [2] was > 133 µM each time.

Take `COC(=O)Nc1nc2ccc(C(=O)c3ccccc3)cc2[nH]1` [MEBENDAZOLE]: the IC50 in test [3] was > 133 µM; in test [1], > 133 µM; in test [2], 15.5 µM.

Turning to `C[C@]12CC[C@H]3[C@@H](CCC4=CC(=O)CC[C@@]43C)[C@@H]1CC[C@@H]2O` [TESTOSTERONE], the IC50 in test [3], in test [1] and in test [2] was > 133 µM in each case.

`CN1[C@@H]2CC[C@H]1C[C@@H](OC(=O)C(CO)c1ccccc1)C2` (mixture of isomers) [ATROPINE]: the IC50 in test [3], in test [1] and in test [2] was > 133 µM in each case.

In the case of `O=C(O)[C@H]1/C(=C/CO)O[C@@H]2CC(=O)N21` [CLAVULANATE POTASSIUM], the IC50 at Bile salt export pump was > 133 µM.

As to `C[C@H](N[C@@H](CCc1ccccc1)C(=O)O)C(=O)N1CCC[C@H]1C(=O)O` [ENALAPRILAT ANHYDROUS], the IC50 in test [3], in test [1] and in test [2] was > 133 µM throughout.

In the case of `CCN(CC)CCCC(C)Nc1ccnc2cc(Cl)ccc12` (stereo unspecified) [CHLOROQUINE], the IC50 in test [3] is > 133 µM; in test [1] it was > 133 µM; in test [2], 104 µM.

Consider `CNC(=C[N+](=O)[O-])NCCSCc1ccc(CN(C)C)o1` [RANITIDINE], for which the IC50 in test [3], in test [1] and in test [2] was > 133 µM in each case.

In the case of `CN(C)CC[C@@H](c1ccc(Br)cc1)c1ccccn1` [DEXBROMPHENIRAMINE MALEATE], the IC50 in test [3], in test [1] and in test [2] was > 133 µM each time.

As for `OC(Cn1cncn1)(Cn1cncn1)c1ccc(F)cc1F` [FLUCONAZOLE], the IC50 in test [3], in test [1] and in test [2] was > 133 µM each time.

`CNCCCC12CCC(c3ccccc31)c1ccccc12` [MAPROTILINE]: the IC50 in test [3], in test [1] and in test [2] was > 133 µM each time.
